Measurements from ChEMBL document CHEMBL1208727, “Synthesis and pharmacological evaluation of aryl aminosulfonamide derivatives as potent 5-HT(6) receptor antagonists” (Bioorg Med Chem Lett, 2010).
Activity calls are given as the source filed them. The calls are words filed in the database; no cut-off is given here.

Legend:
[1] = target: 5-hydroxytryptamine receptor 6 (Homo sapiens, UniProt P50406); assay: Binding affinity to human recombinant 5HT6 receptor expressed in CHO cells coexpressing pCRE-Luc assessed as inhibition of serotonin-induced increase in cAMP level by luciferase reporter gene assay; format: cell-based
Chain of 5-hydroxytryptamine receptor 6 (P50406 whole entry): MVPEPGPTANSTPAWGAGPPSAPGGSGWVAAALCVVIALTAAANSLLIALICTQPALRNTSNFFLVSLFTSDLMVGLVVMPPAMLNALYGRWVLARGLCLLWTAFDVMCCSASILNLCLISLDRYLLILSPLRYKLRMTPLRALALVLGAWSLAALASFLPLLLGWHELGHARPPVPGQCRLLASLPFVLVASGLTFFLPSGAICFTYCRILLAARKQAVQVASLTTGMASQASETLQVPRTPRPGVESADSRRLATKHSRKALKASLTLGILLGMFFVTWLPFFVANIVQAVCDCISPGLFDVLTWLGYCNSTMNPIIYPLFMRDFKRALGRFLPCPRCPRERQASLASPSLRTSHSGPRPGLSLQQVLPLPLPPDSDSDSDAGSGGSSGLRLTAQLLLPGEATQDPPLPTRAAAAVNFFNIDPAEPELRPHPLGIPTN

[2] = Metabolic stability in Wistar rat liver microsomes at […] after 30 mins; format: ADME, Microsome; conditions: read-out: Stability
Cytochrome P450 2D6 = Cytochrome P450 2D6 (Homo sapiens, UniProt P10635); assay: Inhibition of human CY2D6
Chain of Cytochrome P450 2D6 (P10635 whole entry): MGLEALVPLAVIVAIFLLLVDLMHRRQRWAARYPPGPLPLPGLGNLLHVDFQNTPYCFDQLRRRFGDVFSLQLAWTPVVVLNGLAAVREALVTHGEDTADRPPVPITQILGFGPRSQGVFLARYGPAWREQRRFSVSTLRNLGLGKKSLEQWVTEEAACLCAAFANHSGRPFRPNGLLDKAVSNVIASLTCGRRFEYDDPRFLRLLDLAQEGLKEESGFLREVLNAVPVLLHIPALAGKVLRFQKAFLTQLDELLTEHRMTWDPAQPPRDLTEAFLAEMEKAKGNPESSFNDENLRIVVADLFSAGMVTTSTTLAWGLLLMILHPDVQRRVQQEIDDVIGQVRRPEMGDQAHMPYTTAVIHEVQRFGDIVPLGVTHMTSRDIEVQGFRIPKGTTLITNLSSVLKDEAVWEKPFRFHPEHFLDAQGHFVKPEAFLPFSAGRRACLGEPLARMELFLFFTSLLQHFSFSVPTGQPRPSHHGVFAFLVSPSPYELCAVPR

Cytochrome P450 3A4 = Cytochrome P450 3A4 (Homo sapiens, UniProt P08684); assay: Inhibition of human CY3A4
Chain of Cytochrome P450 3A4 (P08684 whole entry): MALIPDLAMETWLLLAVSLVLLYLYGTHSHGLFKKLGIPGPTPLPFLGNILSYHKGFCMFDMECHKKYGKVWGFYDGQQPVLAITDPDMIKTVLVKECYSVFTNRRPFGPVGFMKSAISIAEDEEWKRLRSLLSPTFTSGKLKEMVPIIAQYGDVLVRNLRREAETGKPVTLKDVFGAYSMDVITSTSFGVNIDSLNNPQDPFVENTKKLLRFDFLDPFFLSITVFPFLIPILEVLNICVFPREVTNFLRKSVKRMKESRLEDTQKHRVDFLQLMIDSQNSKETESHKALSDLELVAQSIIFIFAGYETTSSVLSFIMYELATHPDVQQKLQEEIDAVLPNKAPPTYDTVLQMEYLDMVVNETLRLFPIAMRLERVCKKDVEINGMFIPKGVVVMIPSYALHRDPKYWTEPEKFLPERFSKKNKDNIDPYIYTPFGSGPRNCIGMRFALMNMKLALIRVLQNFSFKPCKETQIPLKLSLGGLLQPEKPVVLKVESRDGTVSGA

[3] = Metabolic stability in human liver microsomes at […] after 30 mins; format: ADME, Microsome; conditions: read-out: Stability
[4] = Clearance in Wistar rat at 10 mg/kg, iv; format: ADME, organism-based; set-up: dose 10 mg/kg, route intravenous; conditions: in vivo
Rattus norvegicus [5] = assay: Apparent volume of distribution in Wistar rat at 10 mg/kg, po; format: ADME, organism-based; set-up: dose 10 mg/kg, route oral; conditions: in vivo
[6] = Apparent volume of distribution in Wistar rat at 10 mg/kg, iv; format: ADME, organism-based; set-up: dose 10 mg/kg, route intravenous; conditions: in vivo, read-out: Vz
[7] = Half life in Wistar rat at 10 mg/kg, iv; format: ADME, organism-based; set-up: dose 10 mg/kg, route intravenous; conditions: in vivo
[8] = Clearance in Wistar rat at 10 mg/kg, po; format: ADME, organism-based; set-up: dose 10 mg/kg, route oral; conditions: in vivo
[9] = Ratio of drug level brain to plasma in Wistar rat; format: ADME
[10] = AUCt in Wistar rat at 10 mg/kg, po; format: ADME, organism-based; set-up: dose 10 mg/kg, route oral; conditions: plasma
Rattus norvegicus [11] = assay: Cognitive enhancing effect in Wistar rat at 10 mg/kg, po by novel object recognition test; format: functional, organism-based; set-up: dose 10 mg/kg
[12] = AUCt in Wistar rat at 10 mg/kg, iv; format: ADME, organism-based; set-up: dose 10 mg/kg, route intravenous; conditions: plasma
[13] = Cmax in Wistar rat at 10 mg/kg, po; format: ADME, organism-based; set-up: dose 10 mg/kg, route oral; conditions: in vivo
[14] = Cmax in Wistar rat at 10 mg/kg, iv; format: ADME, organism-based; set-up: dose 10 mg/kg, route intravenous; conditions: in vivo
[15] = Half life in Wistar rat at 10 mg/kg, po; format: ADME, organism-based; set-up: dose 10 mg/kg, route oral; conditions: in vivo
[16] = Oral bioavailability in Wistar rat at 10 mg/kg; format: ADME, organism-based; conditions: in vivo
Rattus norvegicus [17] = species: Rattus norvegicus; assay: Cognitive enhancing effect against scopolamine-induced acquisition memory deficit in Wistar rat by morris water maze test; format: functional, organism-based

Row | SMILES | Kb [1] [nM] | also measured
1 | COc1ccc(S(=O)(=O)NCCc2ccccc2Br)cc1NC1CCN(C)CC1 | 38 | 
2 | CN1CCC(Nc2cccc(S(=O)(=O)Nc3ccc(Br)cc3F)c2)CC1 | 12.2 | 
3 | COc1ccc(S(=O)(=O)Nc2ccccc2Cl)cc1N(C)C1CCNCC1 | 0.86 | 
4 | COc1ccc(S(=O)(=O)Nc2ccccc2)cc1NC1CCN(C)CC1 | 1.23 | 
5 | COc1ccc(S(=O)(=O)Nc2ccccc2Cl)cc1NC1CCN(C)CC1 | 0.584 | 
6 | COc1ccc(S(=O)(=O)NCCc2ccccc2Cl)cc1NC1CCN(C)CC1 | 26 | 
7 | CCN(c1cc(S(=O)(=O)Nc2ccccc2)ccc1OC)C1CCN(C)CC1 | 18.6 | 
8 | COc1ccc(OC)c(NS(=O)(=O)c2cccc(NC3CCN(C)CC3)c2)c1 | 16 | 
9 | COc1ccc(S(=O)(=O)NCc2ccccc2)cc1NC1CCN(C)CC1 | 3.36 | 
10 | COc1ccc(S(=O)(=O)NCc2ccccc2)cc1N(C)C1CCN(C)CC1 | 3.9 | 
11 | CN1CCC(Nc2cccc(S(=O)(=O)Nc3c(F)cc(F)cc3Br)c2)CC1 | > 10000 | 
12 | COc1ccc(NS(=O)(=O)c2cccc(NC3CCN(C)CC3)c2)c(OC)c1 | 10 | 
13 | CCc1ccc(S(=O)(=O)Nc2ccccc2Br)cc1NC1CCN(C)CC1 | 0.19 | remaining at 0.5 h, […] [2]: 99%; IC50 (Cytochrome P450 2D6): > 45000 nM; IC50 (Cytochrome P450 3A4): 9620 nM; remaining at 0.5 h, […] [3]: 26%
14 | COc1ccc(S(=O)(=O)Nc2cc(Cl)cc(Cl)c2OC)cc1NC1CCN(C)CC1 | 0.02 | remaining at 0.5 h, […] [2]: 77%; clearance [4]: 65.5 mL/min/kg; Vz (Rattus norvegicus [5]): 34.332 L/kg; Vd [6]: 16.9 L/kg; half-life [7]: 2.96 h; CL/F [8]: 207 mL/min/kg; Kp [9]: 0.08; AUC(0-t) [10]: 941 ng·h/mL; IC50 (Cytochrome P450 2D6): 41700 nM; Activity (Rattus norvegicus [11]): Active; AUC(0-t) [12]: 2530 ng·h/mL; Cmax [13]: 536 ng/mL; IC50 (Cytochrome P450 3A4): 8440 nM; Cmax [14]: 1920 ng/mL; half-life [15]: 1.72 h; remaining at 0.5 h, […] [3]: 21%; bioavailability [16]: 38%; Activity (Rattus norvegicus [17]): Active
15 | COc1ccc(S(=O)(=O)Nc2ccccc2Br)cc1NC1CCN(C)CC1 | 0.296 | 
16 | CCc1ccc(S(=O)(=O)Nc2ccccc2Br)cc1NC1CCNCC1 | 0.1 | 
17 | COc1ccc(S(=O)(=O)Nc2cc(C)ccc2OC)cc1NC1CCN(C)CC1 | 0.02 | 
18 | Cc1ccc(NS(=O)(=O)c2cccc(NC3CCN(C)CC3)c2)c(C)c1 | > 10000 | 
19 | COc1ccc(S(=O)(=O)NCc2ccccc2)cc1N(C)C1CCNCC1 | 2.65 | 
20 | COc1ccc(S(=O)(=O)Nc2ccccc2Cl)cc1NC1CCNCC1 | 0.48 | 
21 | COc1ccc(S(=O)(=O)Nc2ccccc2Br)cc1NC1CCNCC1 | 0.6 | 
22 | Cc1ccc(S(=O)(=O)Nc2ccccc2Br)cc1NC1CCN(C)CC1 | 1.31 | 
23 | COc1ccc(S(=O)(=O)NCc2ccccc2)cc1NC1CCNCC1 | 4.26 | 
24 | COc1ccc(S(=O)(=O)Nc2ccccc2Br)cc1N(C)C1CCNCC1 | 0.2 | 
25 | CCc1ccc(S(=O)(=O)Nc2cc(Cl)cc(Cl)c2OC)cc1NC1CCN(C)CC1 | 1.65 | 
26 | COc1ccc(NS(=O)(=O)c2ccccc2OC(F)F)cc1N1CCNCC1 |  | Ki [1]: < 10 nM
